Reference: the NIST ThermoML archive (doi:10.1021/acs.jced.6b00040)
± gives the expanded uncertainty stated by the source. One block for each compound: values may come before it.

Details: Liquid, Ebulliometric method (Recirculating still)

- vapor or sublimation pressure (463.38 K): 101.3 ± 0.8 kPa
Compound: C[S+](C)[O-] [dimethyl sulfoxide]

- vapor or sublimation pressure (355.33 K): 101.3 ± 0.8 kPa
Compound: CC(C)O [propan-2-ol]

- vapor or sublimation pressure (361.45 K): 101.3 ± 0.8 kPa
Compound: CC(=O)OC(C)C [1-methylethyl ethanoate]
